Assay results from patent EP4800018A1, “PAN-KRAS INHIBITOR AND USE THEREOF IN MEDICINES” (Betta Pharmaceuticals Co., Ltd., priority 2023, dated 2025).
Read-outs that look alike come from different tables or passages of the source.

Key:
[1] = tested on: KRAS-G12V mutant tumor cells SW620; experiment: Cell Proliferation Inhibition Assay (SW620), Cell-titer GLO, 96 h; assay type: cell-based; details: SW620 cells, 96 h incubation, Cell-titer GLO, read-out: SW620(G12V)
In short: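 SW620 cells (1×10^3/well, low-attachment) were exposed to compound from 10000 to 0.03 nM (0.5% DMSO) for 96 h at 37°C. Viability was read by Cell-titer GLO luminescence. Inhibition was calculated relative to DMSO and blank wells, and IC50 obtained by curve fitting.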

[2] = PK Study of Compounds in Rats; assay type: in vivo, Male SD rats; details: mean; for F: PO 10 mg/kg vs IV 1 mg/kg (n=3); for Cmax: read-out: C0/Cmax
Protocol: The test compound was mixed with the vehicle (10% DMSO/5% Solutol/85% physiological saline), vortexed and sonicated to prepare a clear 0.5 mg/mL intravenous injection solution. The test compound was mixed with the vehicle (20% PEG400/10% Solutol/70% pH 4.5 acetate buffer), vortexed and sonicated to prepare a clear 1 mg/mL oral solution. Male SD rats aged 6 to 7 weeks were selected and administered the test compound via intravenous (IV) and oral (PO) routes, respectively. Whole blood samples were collected at 5 min, 15 min, 30 min, 1 h, 2 h, 4 h, 7 h, and 24 h for the intravenous route, and at 15 min, 30 min, 1 h, 2 h, 4 h, 7 h, and 24 h for the oral route. Drug concentrations were analyzed by LC-MS/MS method, and pharmacokinetic parameters were calculated using Phoenix WinNonlin software (Pharsight, USA).

[3] = tested on: KRAS-G12D mutant tumor cells AGS; experiment: Cell Proliferation Inhibition Assay (AGS), Cell-titer GLO, 96 h; assay type: cell-based; details: AGS cells, 96 h incubation, Cell-titer GLO, read-out: AGS(G12D)
In short: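 AGS cells (KRAS-G12D) grown in low-attachment plates were exposed to compound for 96 h at 37°C. Viability was read by CellTiter-Glo luminescence and converted to % inhibition against max and blank wells. IC50 came from curve fitting.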

KRAS G12D-cRAF = biological target: T1, KRAS G12D-cRAF (Homo sapiens, UniProt P01116, G12D); experiment: Cellular KRAS G12D-cRAF Binding Inhibition Assay (NanoBRET, AD293 stable cells); assay type: cell-based; details: 3 h incubation, read-out: NanoBRET KRAS G12D
T1 construct: expressed in transfected cells
In short: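 AD293 cells stably expressing KRAS G12D-NanoLuc and cRAF RBD-HaloTag were seeded at 1×10^4 cells/well with NanoBRET 618 ligand overnight. BRET signal was converted to % inhibition of binding relative to max and blank wells, and IC50 came from curve fitting.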

KRAS G12V-cRAF = biological target: T2, KRAS G12V-cRAF (Homo sapiens, UniProt P01116, G12V); experiment: Cellular KRAS G12V-cRAF Binding Inhibition Assay (NanoBRET, AD293 stable cells); assay type: cell-based; details: 3 h incubation, read-out: NanoBRET KRAS G12V
T2 construct: expressed in transfected cells
In short: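 Live AD293 stable cells, NanoLuc donor with HaloTag NanoBRET 618 ligand acceptor added overnight. Inhibition percent from luminescence relative to max signal and medium blank; IC50 from curve fitting.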

[4] = male, SD, rat, whole blood, IV 1 mg/kg (n=3)
[5] = male, SD, rat, whole blood, PO 10 mg/kg (n=3)

T2 sequence (P01116 1-188 isoform P01116-2 G12V): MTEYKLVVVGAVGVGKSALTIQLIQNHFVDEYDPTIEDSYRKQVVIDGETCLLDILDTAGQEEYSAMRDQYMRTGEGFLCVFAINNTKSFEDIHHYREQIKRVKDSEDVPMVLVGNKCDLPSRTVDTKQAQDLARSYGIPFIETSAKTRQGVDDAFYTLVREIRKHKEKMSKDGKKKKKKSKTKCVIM
T1 sequence (P01116 1-188 isoform P01116-2 G12D): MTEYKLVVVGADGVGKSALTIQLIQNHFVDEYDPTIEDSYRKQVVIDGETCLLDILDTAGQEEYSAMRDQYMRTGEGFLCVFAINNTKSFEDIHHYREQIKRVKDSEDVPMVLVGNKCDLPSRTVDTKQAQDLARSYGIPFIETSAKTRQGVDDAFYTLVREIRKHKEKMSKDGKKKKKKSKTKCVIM

Compound | IC50 (KRAS G12D-cRAF) [nM] | IC50 ([1]; Homo sapiens, SW-620, 96 h) [nM] | IC50 (KRAS G12V-cRAF) [nM] | IC50 ([3]; Homo sapiens, AGS, 96 h) [nM] | other results
(1S,2S)-2-(difluoromethyl)-N-((1^5S,6^4S,4S,Z)-1^5,10,10-trimethyl-1^2-(4-methylpiperazin-1-yl)-5, 7-dioxo-1^8,1^9-dihydro-1^5H,1^7H-8-oxa-6^2,6^3-diaza-1(13,15)-pyrido[3',2':7,8][1,5]oxazonino[5,6-a ]indola-2(4,2)-thiazola-6(2,4)-bicyclo[3.1.1]heptanacycloundecaphane-4-yl)cyclopropane-1-carb oxamide [Example 184] | – | – | – | – | IC50 [1]: 0.65 nM; AUC(0-t) ([2]; IV 1 mg/kg (n=3)): 5558 ng·h/mL; CL ([2]; IV 1 mg/kg (n=3)): 2.56 mL/min/kg; T1/2 ([2]; IV 1 mg/kg (n=3)): 9.07 h; Vss ([2]; IV 1 mg/kg (n=3)): 1.71 L/kg; AUC(0-t) ([2]; PO 10 mg/kg (n=3)): 10910 ng·h/mL; Tmax ([2]; PO 10 mg/kg (n=3)): 3.33 h; F [2]: 19.6; IC50 [3]: 0.9 nM
CC1OCCCn2c(c3c4cc(ccc42)-c2csc(n2)CC(NC(=O)C2C4COCC42)C(=O)N2NC(C(=O)OCC(C)(C)C3)C3CC2C3)-c2cc(N3CCN(C)CC3)cnc21 [Example 192, (1R,5S,6r)-N-((1^5S,6^4S,4S,Z)-1^5,10,10-trimethyl-1^2-(4-methylpiperazin-1-yl)-5,7-dioxo-1^8,1^9-dihydro-1^5H,1^7H-8-oxa-6^2,6^3-diaza-1(13,15)-pyrido[3',2':7,8][1,5]oxazonino[5,6-a]indola-2(4,2)-thiazola-6(2,4)-bicyclo[3.1.1]heptanacycloundecaphane-4-yl)-3-oxabicyclo[3.1.0]hexane-6-carboxamide] | 4.3 | 0.9 | 16.3 | 1.5 | F [2]: 11.9; clearance [2, 4]: 3.59 mL/min/kg; half-life [2, 4]: 4.93 h; AUC(0-t) ([2]; male, SD, rat, whole blood, IV 1 mg/kg (n=3), read-out: AUC0-t): 4500 ng·h/mL; Cmax [2, 4]: 4220 ng/mL; Vd ([2]; male, SD, rat, whole blood, IV 1 mg/kg (n=3), read-out: Vss): 1.11 L/kg; half-life [2, 5]: 5.13 h; AUC(0-t) ([2]; male, SD, rat, whole blood, PO 10 mg/kg (n=3), read-out: AUC0-t): 5350 ng·h/mL; Cmax [2, 5]: 472 ng/mL; Tmax ([2]; male, SD, rat, whole blood, PO 10 mg/kg (n=3), read-out: Tmax): 3.33 h
[2H]C([2H])([2H])N1CCN(c2cnc3c(c2)-c2c4c5cc(ccc5n2CCCOC3C)-c2csc(n2)CC(NC(=O)C2CC2C(F)F)C(=O)N2CCCC(N2)C(=O)OCC(C)(C)C4)CC1 [Example 91, (1S,2S)-2-(difluoromethyl)-N-((1^5S,6^3S,4S,Z)-1^5,10,10-trimethyl-1^2-(4-(methyl-d3)piperazin-1-yl)-5,7-dioxo-1^8,1^9,6^1,6^2,6^3,6^4,6^5,6^6-octahydro-1^5H,1^7H-8-oxa-1(13,15)-pyrido[3',2':7,8][1,5]oxazonino[5,6-a]indola-2(4,2)-thiazola-6(1,3)-pyridazinacycloundecaphane-4-yl)cyclopropane-1-carb oxamide] | 2.7 | 0.21 | 10.3 | 1.51 | –
CC1OCCCn2c(c3c4cc(ccc42)-c2csc(n2)CC(NC(=O)C2CC2C(F)F)C(=O)N2CCCC(N2)C(=O)OCC(C)(C)C3)-c2cc(N3CC[S+]([O-])CC3)cnc21 [Example 134, (1S,2S)-2-(difluoromethyl)-N-(((1^5S,6^3S,4S,Z)-1^5,10,10-trimethyl-1^2-(1-oxidothiomorpholino)-5,7-dioxo-1^8,1^9,6^1,6^2,6^3,6^4,6^5,6^6-octahydro-1^5H,1^7H-8-oxa-1(13,15)-pyrido[3',2':7,8][1,5]oxazonino[5,6-alindola-2(4,2)-thiazola-6(1,3)-pyridazinacycloundecaphane-4-yl)cyclopropane-1-carboxamide] | 13.7 | 1.44 | 59 | 1.7 | –
CC1OCCCn2c(c3c4cc(ccc42)-c2csc(n2)CC(NC(=O)C24CC(C)(C2)C4)C(=O)N2CCCC(N2)C(=O)OCC(C)(C)C3)-c2cc(N3CCOCC3)cnc21 (stereo not shown) [Example 116, 3-methyl-N-((1^5S6^3S4S,Z)-1^5,10,10-trimethyl-1^2-morpholino-5,7-dioxo-1^8,1^9,6^1,6^2,6^3,6^4,6^5,6^6-octahydro-1^5H,1^7H-8-oxa-1(13,15)-pyrido[3',2':7,8][1,5]oxazonino[5,6-a]indola-2(4,2)-thiazola-6 (1,3)-pyridazinacycloundecaphane-4-yl)bicyclo[1.1.1]pentane-1-carboxamide] | 9.57 | 4.1 | 37.8 | 8.27 | –
CCN1CCN(c2cnc3c(c2)-c2c4c5cc(ccc5n2CCCOC3C)-c2csc(n2)CC(NC(=O)C2CC2C)C(=O)N2CCCC(N2)C(=O)OCC(C)(C)C4)CC1 [Example 21, (1S,2S)-N-((1^5S,6^3S,4S,Z)-12-(4-ethylpiperazin-1-yl)-1^5,10,10-trimethyl-5,7-dioxo-1^8,1^9,6^1,6^2,6^3 ,6^4,6^5,6^6-octahydro-1^5H,1^7H-8-oxa-1(13,15)-pyrido[3',2':7,8][1,5]oxazonino[5,6-a]indola-2(4,2)-thiazola-6(1,3)-pyridazinacycloundecaphane-4-yl)-2-methylcyclopropane-1-carboxamide] | 3.95 | 1.46 | 15.1 | 2.19 | –
CC1OCCCn2c(c3c4cc(ccc42)-c2csc(n2)CC(NC(=O)C2CC2C(F)F)C(=O)N2CCCC(N2)C(=O)OCC(C)(C)C3)-c2cc(N3CCN(C(C)C)CC3)cnc21 [Example 86, (1S,2S)-2-(difluoromethyl)-N-((1^5S,6^3S,4S,Z)-1^2-(4-isopropylpiperazin-1-yl)-1^5,10,10-trimethyl-5,7-dioxo-1^8,1^9,6^1,6^2,6^3,6^4,6^5,6^6-octahydro-1^5H,1^7H-8-oxa-1(13,15)-pyrido[3',2':7,8][1,5]oxazonino[5,6-a]indola-2(4,2)-thiazola-6(1,3)-pyridazinacycloundecaphane-4-yl)cyclopropane-1-carbox amide] | 2.19 | 0.17 | 11 | 1.19 | –
CC1OCCCn2c(c3c4cc(ccc42)-c2csc(n2)CC(NC(=O)C2CC2C(F)F)C(=O)N2CCCC(N2)C(=O)OCC(C)(C)C3)-c2cc(N3CC(C)N(C)C(C)C3)cnc21 [Example 142, (1S,2S)-2-(difluoromethyl)-N-((1^5S,6^3S,4S,Z)-1^5,10,10-trimethyl-5,7-dioxo-1^2-((3S,5S)-3,4,5-trimethylpiperazin-1-yl)-1^8,1^9,6^1,6^2,6^3,6^4,6^5,6^6-octahydro-1^5H,1^7H-8-oxa-1(13,15)-pyrido[3',2':7,8] [1,5]oxazonino[5,6-a]indola-2(4,2)-thiazola-6(1,3)-pyridazinacycloundecaphane-4-yl)cyclopropane-1-carboxamide] | 1.88 | – | 5.61 | – | IC50 [1]: 0.09 nM; IC50 [3]: 0.3 nM
CC1OCCCn2c(c3c4cc(ccc42)-c2csc(n2)CC(NC(=O)C2CC2C(F)F)C(=O)N2CCCC(N2)C(=O)OCC(C)(C)C3)-c2cc(N3CCN4CCOCC4C3)cnc21 [Example 110, (1S,2S)-2-(difluoromethyl)-N-((1^5S,6^3S,4S,Z)-1^2-((S)-hexahydropyrazino[2,1-c][1,4]oxazin-8(1 H)-yl)-1^5,10,10-trimethyl-5,7-dioxo-1^8,1^9,6^1,6^2,6^3,6^4,6^5,6^6-octahydro-1^5H,1^7H-8-oxa-1(13,15)-pyrido[3',2':7,8][1,5]oxazonino[5,6-a]indola-2(4,2)-thiazola-6(1,3)-pyridazinacycloundecaphane-4-yl)cyclopropane-1-carboxamide] | 4.17 | 0.15 | 14 | 1.12 | –
CC1OCCCn2c(c3c4cc(ccc42)-c2csc(n2)CC(NC(=O)C2CC2C(F)F)C(=O)N2CCCC(N2)C(=O)OCC(C)(C)C3)-c2cc(N(C)CCN(C)C)cnc21 [Example 87, (1S,2S)-2-(difluoromethyl)-N-((1^5S,6^3S,4S,Z)-1^2-((2-(dimethylamino)ethyl)(methyl)amino)-1^5,1 0,10-trimethyl-5,7-dioxo-1^8,1^9,6^1,6^2,6^3,6^4,6^5,6^6-octahydro-1^5H,1^7H-8-oxa-l(13,15)-pyrido[3',2':7 ,8][1,5]oxazonino[5,6-a]indola-2(4,2)-thiazola-6(1,3)-pyridazinacycloundecaphane-4-yl)cyclopr opane-1-carboxamide] | 38.8 | 2.75 | 184 | 8.3 | –
